Read-outs that look alike come from different tables or passages of the source.
Key:
Assay type in all cases: biochemical
[1] = target: 320 wild-type protein kinases (Homo sapiens, UniProt P23458); conditions: JAK1 aa583-1154 wt, singlicate
From the text: (§1) Table S4. Profiling of two compounds at two concentrations against 320 wild-type protein kinases; singlicate measurement; Residual activities (% of control).

[2] = target: 320 wild-type protein kinases (Homo sapiens, UniProt P24723); conditions: PKC-eta, singlicate
From the text: as §1

[3] = target: T1, 320 wild-type protein kinases (Homo sapiens, UniProt O00418); conditions: EEF2K, singlicate
T1 sequence (O00418 1-725): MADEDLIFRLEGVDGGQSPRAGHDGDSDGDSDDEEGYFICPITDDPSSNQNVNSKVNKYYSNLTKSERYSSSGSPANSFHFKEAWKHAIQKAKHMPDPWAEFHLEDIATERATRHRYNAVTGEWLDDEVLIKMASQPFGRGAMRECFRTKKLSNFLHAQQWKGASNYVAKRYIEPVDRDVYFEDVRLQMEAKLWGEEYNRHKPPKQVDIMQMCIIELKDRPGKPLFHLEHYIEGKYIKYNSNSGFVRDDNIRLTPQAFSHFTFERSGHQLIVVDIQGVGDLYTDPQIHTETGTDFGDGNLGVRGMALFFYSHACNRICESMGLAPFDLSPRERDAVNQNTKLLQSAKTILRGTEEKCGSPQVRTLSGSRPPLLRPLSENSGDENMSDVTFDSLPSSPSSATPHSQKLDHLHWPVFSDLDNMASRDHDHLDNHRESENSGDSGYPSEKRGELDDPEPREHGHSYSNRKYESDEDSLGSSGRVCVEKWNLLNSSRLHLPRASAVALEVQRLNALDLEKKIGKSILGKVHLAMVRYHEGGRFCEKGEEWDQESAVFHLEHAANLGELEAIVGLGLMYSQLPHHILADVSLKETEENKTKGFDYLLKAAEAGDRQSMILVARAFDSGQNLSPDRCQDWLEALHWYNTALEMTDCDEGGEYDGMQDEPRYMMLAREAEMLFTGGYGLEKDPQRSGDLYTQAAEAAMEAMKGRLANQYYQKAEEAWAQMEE
From the text: as §1

[4] = target: T2, 320 wild-type protein kinases (Homo sapiens, UniProt O94806); conditions: PKC-nu, singlicate
T2 sequence (O94806 1-890): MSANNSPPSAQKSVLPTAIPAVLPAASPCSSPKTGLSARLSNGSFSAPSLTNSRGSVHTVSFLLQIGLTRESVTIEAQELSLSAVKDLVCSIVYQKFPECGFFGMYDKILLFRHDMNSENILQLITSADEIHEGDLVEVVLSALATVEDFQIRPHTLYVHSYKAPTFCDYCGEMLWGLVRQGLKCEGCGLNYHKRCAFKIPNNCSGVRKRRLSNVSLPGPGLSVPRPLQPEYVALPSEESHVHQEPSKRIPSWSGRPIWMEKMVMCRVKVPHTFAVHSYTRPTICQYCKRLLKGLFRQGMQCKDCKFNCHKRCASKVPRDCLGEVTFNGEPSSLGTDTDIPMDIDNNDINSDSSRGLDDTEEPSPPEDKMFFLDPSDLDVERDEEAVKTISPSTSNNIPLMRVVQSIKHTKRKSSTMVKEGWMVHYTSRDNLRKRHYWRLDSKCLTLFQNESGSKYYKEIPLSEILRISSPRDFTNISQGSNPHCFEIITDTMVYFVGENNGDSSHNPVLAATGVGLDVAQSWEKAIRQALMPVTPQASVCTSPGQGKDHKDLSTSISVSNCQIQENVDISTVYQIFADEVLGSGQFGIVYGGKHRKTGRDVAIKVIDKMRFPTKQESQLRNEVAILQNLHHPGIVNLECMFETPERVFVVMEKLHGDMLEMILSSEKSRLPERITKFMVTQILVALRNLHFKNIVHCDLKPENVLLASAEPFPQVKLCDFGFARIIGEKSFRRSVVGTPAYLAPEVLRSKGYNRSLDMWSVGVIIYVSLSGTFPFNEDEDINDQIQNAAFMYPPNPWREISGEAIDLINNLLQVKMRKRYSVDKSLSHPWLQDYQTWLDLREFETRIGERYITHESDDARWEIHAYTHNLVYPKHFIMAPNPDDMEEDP
From the text: as §1

[5] = target: 320 wild-type protein kinases (Homo sapiens, UniProt Q13557); conditions: CAMK2D, singlicate
From the text: as §1

[6] = target: 320 wild-type protein kinases (Homo sapiens, UniProt Q16539); conditions: p38-alpha, singlicate
From the text: as §1

[7] = target: 320 wild-type protein kinases (Homo sapiens, UniProt P41240); conditions: CSK, singlicate
From the text: as §1

[8] = target: 320 wild-type protein kinases (Homo sapiens, UniProt Q9P289); conditions: singlicate
From the text: as §1

Sequence of 320 wild-type protein kinases (Homo sapiens, UniProt Q13557) (Q13557 whole entry): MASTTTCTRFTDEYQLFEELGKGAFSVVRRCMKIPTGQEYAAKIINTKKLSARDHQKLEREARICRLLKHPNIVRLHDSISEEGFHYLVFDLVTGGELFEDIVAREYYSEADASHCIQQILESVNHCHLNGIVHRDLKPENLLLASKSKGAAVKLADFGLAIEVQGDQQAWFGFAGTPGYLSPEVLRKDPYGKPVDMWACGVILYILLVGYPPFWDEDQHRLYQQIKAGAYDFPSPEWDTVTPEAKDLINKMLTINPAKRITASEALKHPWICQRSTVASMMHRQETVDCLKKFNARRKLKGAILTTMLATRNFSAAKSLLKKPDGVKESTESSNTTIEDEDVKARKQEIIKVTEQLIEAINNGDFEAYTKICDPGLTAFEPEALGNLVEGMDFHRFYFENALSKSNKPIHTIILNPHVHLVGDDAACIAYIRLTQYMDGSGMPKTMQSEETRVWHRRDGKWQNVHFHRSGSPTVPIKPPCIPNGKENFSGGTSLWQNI
Sequence of 320 wild-type protein kinases (Homo sapiens, UniProt Q9P289) (Q9P289 whole entry): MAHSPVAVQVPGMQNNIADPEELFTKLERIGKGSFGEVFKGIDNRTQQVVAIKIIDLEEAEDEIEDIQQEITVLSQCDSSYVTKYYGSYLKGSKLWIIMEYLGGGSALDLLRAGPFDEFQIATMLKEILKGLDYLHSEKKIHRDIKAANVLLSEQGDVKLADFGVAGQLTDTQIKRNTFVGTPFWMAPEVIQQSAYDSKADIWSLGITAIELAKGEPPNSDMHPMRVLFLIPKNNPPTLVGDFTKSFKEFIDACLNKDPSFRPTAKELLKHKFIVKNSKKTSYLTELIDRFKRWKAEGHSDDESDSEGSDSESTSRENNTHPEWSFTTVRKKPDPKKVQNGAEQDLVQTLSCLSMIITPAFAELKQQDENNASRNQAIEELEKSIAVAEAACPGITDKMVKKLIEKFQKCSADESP
Sequence of 320 wild-type protein kinases (Homo sapiens, UniProt P24723) (P24723 whole entry): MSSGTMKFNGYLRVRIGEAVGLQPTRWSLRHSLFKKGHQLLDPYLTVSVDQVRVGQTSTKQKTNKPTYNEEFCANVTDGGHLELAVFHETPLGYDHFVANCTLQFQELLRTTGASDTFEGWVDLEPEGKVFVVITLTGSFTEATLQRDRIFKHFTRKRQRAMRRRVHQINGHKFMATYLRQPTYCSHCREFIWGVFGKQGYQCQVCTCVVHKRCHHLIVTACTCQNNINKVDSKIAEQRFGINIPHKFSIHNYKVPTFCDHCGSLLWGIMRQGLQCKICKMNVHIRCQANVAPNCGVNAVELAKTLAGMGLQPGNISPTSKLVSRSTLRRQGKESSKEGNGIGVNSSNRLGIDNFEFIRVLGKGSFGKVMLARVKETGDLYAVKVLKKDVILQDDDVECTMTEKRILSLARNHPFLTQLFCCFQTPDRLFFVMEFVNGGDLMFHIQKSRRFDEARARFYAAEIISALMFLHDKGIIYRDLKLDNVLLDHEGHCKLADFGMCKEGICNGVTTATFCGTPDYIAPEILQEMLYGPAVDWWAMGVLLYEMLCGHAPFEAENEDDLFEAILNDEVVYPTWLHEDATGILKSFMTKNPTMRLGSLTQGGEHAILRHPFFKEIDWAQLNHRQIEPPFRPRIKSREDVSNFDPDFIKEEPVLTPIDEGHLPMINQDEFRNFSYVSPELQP
Sequence of 320 wild-type protein kinases (Homo sapiens, UniProt P23458) (P23458 whole entry, the tested form may be a part): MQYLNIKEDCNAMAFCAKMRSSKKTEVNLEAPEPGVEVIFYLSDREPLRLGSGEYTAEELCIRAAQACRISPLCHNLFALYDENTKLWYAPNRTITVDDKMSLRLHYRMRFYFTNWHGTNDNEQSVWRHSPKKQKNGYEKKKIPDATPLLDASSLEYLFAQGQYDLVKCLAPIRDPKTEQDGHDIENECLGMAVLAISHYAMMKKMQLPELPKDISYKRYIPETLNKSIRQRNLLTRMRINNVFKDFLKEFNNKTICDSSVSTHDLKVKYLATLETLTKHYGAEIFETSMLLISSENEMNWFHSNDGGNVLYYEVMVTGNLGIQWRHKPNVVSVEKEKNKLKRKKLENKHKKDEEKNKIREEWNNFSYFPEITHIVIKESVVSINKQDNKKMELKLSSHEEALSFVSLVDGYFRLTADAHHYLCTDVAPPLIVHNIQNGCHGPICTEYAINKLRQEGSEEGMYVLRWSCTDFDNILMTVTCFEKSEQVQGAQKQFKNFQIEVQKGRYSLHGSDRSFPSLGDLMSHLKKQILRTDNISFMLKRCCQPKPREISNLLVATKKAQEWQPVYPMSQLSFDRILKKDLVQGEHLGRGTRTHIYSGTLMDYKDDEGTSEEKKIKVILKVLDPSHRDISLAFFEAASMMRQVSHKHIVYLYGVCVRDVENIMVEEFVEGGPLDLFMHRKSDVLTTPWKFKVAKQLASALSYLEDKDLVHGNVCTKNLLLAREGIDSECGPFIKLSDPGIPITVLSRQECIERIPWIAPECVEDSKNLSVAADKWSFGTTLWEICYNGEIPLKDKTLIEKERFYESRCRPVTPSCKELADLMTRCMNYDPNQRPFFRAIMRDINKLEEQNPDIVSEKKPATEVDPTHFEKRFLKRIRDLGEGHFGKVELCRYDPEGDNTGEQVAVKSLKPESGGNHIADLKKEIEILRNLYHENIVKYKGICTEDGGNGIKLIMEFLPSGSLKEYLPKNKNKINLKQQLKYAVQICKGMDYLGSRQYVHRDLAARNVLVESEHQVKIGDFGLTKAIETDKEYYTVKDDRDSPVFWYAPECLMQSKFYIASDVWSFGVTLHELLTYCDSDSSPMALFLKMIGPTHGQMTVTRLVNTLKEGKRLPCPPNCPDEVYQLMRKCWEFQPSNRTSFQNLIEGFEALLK
Sequence of 320 wild-type protein kinases (Homo sapiens, UniProt Q16539) (Q16539 whole entry): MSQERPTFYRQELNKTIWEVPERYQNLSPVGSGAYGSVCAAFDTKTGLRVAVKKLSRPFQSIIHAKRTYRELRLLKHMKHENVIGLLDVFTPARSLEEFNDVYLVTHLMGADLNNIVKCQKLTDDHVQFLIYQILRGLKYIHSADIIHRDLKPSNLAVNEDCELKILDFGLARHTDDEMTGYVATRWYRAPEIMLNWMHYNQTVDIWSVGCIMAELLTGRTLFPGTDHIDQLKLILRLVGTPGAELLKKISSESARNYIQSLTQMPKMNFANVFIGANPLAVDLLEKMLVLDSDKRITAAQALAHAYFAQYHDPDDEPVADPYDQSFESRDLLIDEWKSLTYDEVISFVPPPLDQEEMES
Sequence of 320 wild-type protein kinases (Homo sapiens, UniProt P41240) (P41240 whole entry): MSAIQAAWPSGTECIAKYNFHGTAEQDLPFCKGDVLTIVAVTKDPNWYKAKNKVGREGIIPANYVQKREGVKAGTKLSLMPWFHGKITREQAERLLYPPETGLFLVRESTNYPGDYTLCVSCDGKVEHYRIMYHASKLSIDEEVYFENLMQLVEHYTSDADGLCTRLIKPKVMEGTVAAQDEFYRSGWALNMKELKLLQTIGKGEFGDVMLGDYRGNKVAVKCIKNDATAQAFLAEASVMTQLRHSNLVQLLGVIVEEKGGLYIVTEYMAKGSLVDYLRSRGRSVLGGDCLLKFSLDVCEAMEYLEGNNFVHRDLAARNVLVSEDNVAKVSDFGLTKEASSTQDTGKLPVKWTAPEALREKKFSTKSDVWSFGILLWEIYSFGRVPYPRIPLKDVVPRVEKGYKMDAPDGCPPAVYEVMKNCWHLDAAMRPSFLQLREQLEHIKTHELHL

Structure (SMILES) | Residual activity ([1]; 1.0E-06 M) | Residual activity ([1]; 1.0E-07 M) | Residual activity ([2]; 1.0E-06 M) | Residual activity ([2]; 1.0E-07 M) | Residual activity ([3]; 1.0E-06 M) | Residual activity ([3]; 1.0E-07 M) | Residual activity ([4]; 1.0E-06 M) | Residual activity ([4]; 1.0E-07 M) | Residual activity ([5]; 1.0E-06 M) | Residual activity ([5]; 1.0E-07 M) | Residual activity ([6]; 1.0E-06 M) | Residual activity ([6]; 1.0E-07 M) | Residual activity ([7]; 1.0E-06 M) | Residual activity ([7]; 1.0E-07 M) | Residual activity ([8]; MST4, 1.0E-06 M) | Residual activity ([8]; MST4, 1.0E-07 M)
C#Cc1cc(Nc2ncnc3cc(I)ccc23)ccc1Cl [Compound 41] | 90 % of control | 98 % of control | 91 % of control | 93 % of control | 87 % of control | 94 % of control | 86 % of control | 87 % of control | 89 % of control | 103 % of control | 71 % of control | 103 % of control | 92 % of control | 110 % of control | 89 % of control | 101 % of control
C#Cc1cc(Nc2ncnc3cc(OC)c(OC)cc23)ccc1Cl [Compound 45] | 102 % of control | 111 % of control | 75 % of control | 90 % of control | 83 % of control | 91 % of control | 84 % of control | 99 % of control | 95 % of control | 91 % of control | 56 % of control | 96 % of control | 92 % of control | 106 % of control | 97 % of control | 92 % of control

— PMC9329436, “Optimization of the 4-anilinoquin(az)oline scaffold as epidermal growth factor receptor (EGFR) inhibitors for chordoma utilizing a toxicology profiling assay platform” (Scientific Reports, 2022)
